Measured values from patent US20250051332A1 (priority 2022, published 2025).

Tests used:
5-HT7A = 5-HT7A (Homo sapiens, UniProt P34969); assay: PDSP radioligand displacement binding; conditions: average of three independent trials
Alpha1D = target: T1, Alpha1D (Homo sapiens, UniProt P25100); assay: PDSP radioligand displacement binding; conditions: average of three independent trials
T1 sequence (P25100 1-572): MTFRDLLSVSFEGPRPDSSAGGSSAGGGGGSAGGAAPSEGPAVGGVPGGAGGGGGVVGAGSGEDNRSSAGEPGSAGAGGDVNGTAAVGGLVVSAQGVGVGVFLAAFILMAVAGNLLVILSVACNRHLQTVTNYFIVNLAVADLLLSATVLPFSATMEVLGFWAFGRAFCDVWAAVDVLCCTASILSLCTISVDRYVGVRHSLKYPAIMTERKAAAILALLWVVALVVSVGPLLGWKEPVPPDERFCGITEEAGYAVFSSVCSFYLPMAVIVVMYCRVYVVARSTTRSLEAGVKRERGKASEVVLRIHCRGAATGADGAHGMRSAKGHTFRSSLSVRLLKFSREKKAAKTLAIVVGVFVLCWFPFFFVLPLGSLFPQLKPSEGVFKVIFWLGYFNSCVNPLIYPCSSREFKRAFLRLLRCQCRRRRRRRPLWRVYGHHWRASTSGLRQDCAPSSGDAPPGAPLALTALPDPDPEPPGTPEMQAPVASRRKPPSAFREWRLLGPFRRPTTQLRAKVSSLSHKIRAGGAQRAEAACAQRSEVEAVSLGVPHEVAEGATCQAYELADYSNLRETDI

DOR = DOR (Homo sapiens, UniProt P41143); assay: PDSP radioligand displacement binding; conditions: average of three independent trials
Alpha7 = Alpha7 (Homo sapiens, UniProt P36544); assay: PDSP radioligand displacement binding; conditions: average of three independent trials
κOR = target: T2, κOR (Homo sapiens, UniProt P41145); assay: PathHunter β-arrestin-2 recruitment assay at the κOR; assay type: cell-based; conditions: FIG. 6
T2 construct: host or cells: CHO-K1
Source text: Cell Lines and Cell Culture. To perform the HitHunter cAMP accumulation assay, Chinese hamster ovary cells (CHO-K1) stably expressing human μ-opioid receptor (OPRM1, catalog no. 95-0107C2, DiscoverX, Fremont, CA, USA), K-opioid receptor (OPRK1, catalog no. 95-0088C2, DiscoverX, Fremont, CA, USA), or 6-opioid receptor (OPRD1, catalog no. 95-0108C2, DiscoverX, Fremont, CA, USA) were maintained at 80% confluence in F-12 media supplemented with 10% fetal bovine serum, 1% penicillin/streptomycin/L-glutamine, and 800 μg/mL G418. To perform the PathHunter β-arrestin-2 recruitment assay, U2OS-human κ opioid receptor (κOR) cells stably expressing the κOR and β-arrestin-2 (RRID:CVCL_LA97, DiscoverX, Fremont, CA, USA) were maintained in McCoy's 5A media supplemented with 10% FBS and containing 500 μg/mL geneticin and 250 μg/mL hygromycin. All cells were grown 37° C. under 5% CO2 in a humidified incubator under sterile conditions in T75 flasks. During passaging, cells were dislodged from the flask following a 3-5 min incubation with 0.25% trypsin or non-enzymatic detachment reagent and subcultivated at ratios of 1:10 (CHO) and 3:10 (U2OS).
PathHunter β-arrestin-2 Recruitment Assay. The R-arrestin-2 recruitment assay was performed using U2OS-human (κOR) PathHunter R-arrestin-2 cells (DiscoverX) as previously described.^77

Alpha2B = target: T3, Alpha2B (Homo sapiens, UniProt P18089); assay: PDSP radioligand displacement binding; conditions: average of three independent trials
T3 sequence (P18089 1-450): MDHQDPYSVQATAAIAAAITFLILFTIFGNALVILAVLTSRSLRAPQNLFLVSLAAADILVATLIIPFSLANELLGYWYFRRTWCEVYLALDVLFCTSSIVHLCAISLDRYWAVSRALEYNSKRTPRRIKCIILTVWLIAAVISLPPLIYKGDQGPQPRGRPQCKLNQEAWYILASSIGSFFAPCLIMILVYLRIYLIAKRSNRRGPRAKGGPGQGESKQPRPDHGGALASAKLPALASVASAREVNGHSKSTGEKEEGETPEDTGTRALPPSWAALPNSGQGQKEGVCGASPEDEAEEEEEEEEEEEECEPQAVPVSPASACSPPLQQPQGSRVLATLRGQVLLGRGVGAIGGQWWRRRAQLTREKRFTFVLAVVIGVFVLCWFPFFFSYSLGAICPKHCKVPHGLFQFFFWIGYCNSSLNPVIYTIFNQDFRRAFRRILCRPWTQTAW

Sigma 2 = assay: PDSP radioligand displacement binding; conditions: average of three independent trials
Alpha2C = target: T4, Alpha2C (Homo sapiens, UniProt P18825); assay: PDSP radioligand displacement binding; conditions: average of three independent trials
T4 sequence (P18825 1-462): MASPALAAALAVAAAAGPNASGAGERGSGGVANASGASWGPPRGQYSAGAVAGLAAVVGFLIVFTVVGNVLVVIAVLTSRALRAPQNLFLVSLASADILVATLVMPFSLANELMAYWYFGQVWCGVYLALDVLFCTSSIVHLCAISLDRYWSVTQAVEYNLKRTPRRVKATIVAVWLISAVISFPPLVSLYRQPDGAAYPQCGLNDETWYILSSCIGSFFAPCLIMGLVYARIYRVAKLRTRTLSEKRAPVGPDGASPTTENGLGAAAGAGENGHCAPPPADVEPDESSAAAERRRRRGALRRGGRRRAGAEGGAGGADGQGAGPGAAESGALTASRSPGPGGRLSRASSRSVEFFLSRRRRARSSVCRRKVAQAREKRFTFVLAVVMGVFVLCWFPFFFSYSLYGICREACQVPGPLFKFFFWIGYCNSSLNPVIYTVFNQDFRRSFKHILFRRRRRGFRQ

5-HT5A = 5-HT5A (Homo sapiens, UniProt P47898); assay: PDSP radioligand displacement binding; conditions: average of three independent trials
Alpha1A = target: T5, Alpha1A (Homo sapiens, UniProt P35348); assay: PDSP radioligand displacement binding; conditions: average of three independent trials
T5 sequence (P35348 1-466): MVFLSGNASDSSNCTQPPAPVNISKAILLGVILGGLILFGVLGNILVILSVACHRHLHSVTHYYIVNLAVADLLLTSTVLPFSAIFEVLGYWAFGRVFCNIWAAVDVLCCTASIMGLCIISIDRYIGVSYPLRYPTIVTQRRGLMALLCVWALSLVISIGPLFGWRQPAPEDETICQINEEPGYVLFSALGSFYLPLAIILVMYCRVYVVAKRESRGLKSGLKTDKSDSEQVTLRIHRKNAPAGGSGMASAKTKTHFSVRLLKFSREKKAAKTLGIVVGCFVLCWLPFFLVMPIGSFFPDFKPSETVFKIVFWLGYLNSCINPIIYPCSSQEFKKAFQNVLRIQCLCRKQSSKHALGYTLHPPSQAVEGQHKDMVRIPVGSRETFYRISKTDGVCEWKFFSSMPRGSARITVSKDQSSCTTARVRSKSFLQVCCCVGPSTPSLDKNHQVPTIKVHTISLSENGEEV

Sequence of 5-HT7A (P34969 1-445 isoform P34969-2): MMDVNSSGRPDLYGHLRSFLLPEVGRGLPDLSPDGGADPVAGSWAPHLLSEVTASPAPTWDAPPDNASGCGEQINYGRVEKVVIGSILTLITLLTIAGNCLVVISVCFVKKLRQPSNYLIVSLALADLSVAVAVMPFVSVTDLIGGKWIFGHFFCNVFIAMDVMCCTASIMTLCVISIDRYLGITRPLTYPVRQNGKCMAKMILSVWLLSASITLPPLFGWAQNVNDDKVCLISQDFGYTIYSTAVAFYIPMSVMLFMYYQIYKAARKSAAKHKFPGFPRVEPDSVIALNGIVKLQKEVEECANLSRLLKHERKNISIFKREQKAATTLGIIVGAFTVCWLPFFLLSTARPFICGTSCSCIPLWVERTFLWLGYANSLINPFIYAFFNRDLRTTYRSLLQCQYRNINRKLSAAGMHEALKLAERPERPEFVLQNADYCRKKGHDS
Sequence of DOR (P41143 whole entry): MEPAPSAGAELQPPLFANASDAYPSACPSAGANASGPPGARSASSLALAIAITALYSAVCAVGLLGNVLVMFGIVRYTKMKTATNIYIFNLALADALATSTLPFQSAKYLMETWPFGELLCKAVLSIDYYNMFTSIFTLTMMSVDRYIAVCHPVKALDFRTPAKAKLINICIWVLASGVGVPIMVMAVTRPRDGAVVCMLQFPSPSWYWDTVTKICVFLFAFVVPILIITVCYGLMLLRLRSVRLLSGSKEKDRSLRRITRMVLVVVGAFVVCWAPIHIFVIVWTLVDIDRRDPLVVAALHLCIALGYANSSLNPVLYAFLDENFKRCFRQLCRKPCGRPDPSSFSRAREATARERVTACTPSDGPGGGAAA
Sequence of 5-HT5A (P47898 whole entry, species assumed): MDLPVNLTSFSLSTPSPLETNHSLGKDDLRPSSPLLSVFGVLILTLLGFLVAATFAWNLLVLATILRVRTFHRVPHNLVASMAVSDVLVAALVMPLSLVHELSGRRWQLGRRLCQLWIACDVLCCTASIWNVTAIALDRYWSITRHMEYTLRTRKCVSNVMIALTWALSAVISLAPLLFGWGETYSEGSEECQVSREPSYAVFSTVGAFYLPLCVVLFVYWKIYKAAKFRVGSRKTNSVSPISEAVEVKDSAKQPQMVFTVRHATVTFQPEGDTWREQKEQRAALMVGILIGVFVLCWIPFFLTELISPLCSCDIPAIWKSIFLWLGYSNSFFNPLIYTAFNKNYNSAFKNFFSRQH
Sequence of Alpha7 (P36544 23-502): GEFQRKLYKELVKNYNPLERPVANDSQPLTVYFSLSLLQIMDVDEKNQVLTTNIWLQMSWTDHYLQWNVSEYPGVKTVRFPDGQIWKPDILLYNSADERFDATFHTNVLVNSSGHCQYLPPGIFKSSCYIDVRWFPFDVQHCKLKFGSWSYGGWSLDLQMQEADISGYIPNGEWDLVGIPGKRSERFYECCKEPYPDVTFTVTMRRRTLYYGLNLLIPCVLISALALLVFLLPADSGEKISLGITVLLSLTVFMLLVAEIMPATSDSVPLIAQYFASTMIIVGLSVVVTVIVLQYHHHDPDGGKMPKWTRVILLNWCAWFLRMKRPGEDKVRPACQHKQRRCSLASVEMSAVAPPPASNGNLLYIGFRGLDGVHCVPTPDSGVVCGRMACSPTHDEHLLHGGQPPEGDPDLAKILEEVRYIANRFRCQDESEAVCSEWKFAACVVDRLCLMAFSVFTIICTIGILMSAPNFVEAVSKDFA
T2 sequence (P41145 whole entry): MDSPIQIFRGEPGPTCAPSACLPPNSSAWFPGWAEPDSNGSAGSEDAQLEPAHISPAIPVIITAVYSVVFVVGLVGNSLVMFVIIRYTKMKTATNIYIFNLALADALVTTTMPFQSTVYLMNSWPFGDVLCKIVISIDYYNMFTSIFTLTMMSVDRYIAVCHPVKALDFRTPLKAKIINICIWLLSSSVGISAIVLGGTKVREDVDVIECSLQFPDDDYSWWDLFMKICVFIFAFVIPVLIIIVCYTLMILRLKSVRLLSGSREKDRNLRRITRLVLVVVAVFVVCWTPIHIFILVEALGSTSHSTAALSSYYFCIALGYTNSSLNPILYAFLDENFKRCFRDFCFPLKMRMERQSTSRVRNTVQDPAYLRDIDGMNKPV

| SMILES | Ki (5-HT7A) [nM] | Ki (Alpha1D) [nM] | Ki (nM) at DOR (DOR) | Ki (Alpha7) [nM] | βArr2 recruitment compared with U50,488 (κOR) | Ki (nM) at Alpha2B (Alpha2B) | Ki (Sigma 2) [nM] | Ki (Alpha2C) [nM] | Ki (5-HT5A) [nM] | Ki (Alpha1A) [nM] | Ki (nM) at Alpha1D (Alpha1D) | Ki (Alpha2B) [nM] |
| --- | --- | --- | --- | --- | --- | --- | --- | --- | --- | --- | --- | --- |
| C/C=C1/CN2CC[C@]34C(=C(C(=O)OC)[C@H]1C[C@H]23)Nc1ccc(I)cc14 [Compound 3, 10-Iodoakuammicine] | 1380 | 1140 | — (“—” indicates compound produced less than 50% displacement of radioligand in primary binding screen at 10 μM.) | 5490 | more efficacious than the reference compound U50,488 | — (“—” indicates compound produced less than 50% displacement of radioligand in primary binding screen at 10 μM.) | 2220 | 2860 | 829 | 883 | – | – |
| C/C=C1/CN2CC[C@]34C(=C(C(=O)OC)[C@H]1C[C@H]23)Nc1ccc(Br)cc14 [Compound 2, 10-Bromoakuammicine] | 1520 | – | — (“—” indicates compound produced less than 50% displacement of radioligand in primary binding screen at 10 μM.) | 7000 | more efficacious than the reference compound U50,488 | – | 2620 | 2910 | 721 | 1000 | — (“—” indicates compound produced less than 50% displacement of radioligand in primary binding screen at 10 μM.) | 1250 |
